US20220000853A1, “FORMULATIONS, METHODS, KIT, AND DOSAGE FORMS FOR IMPROVED STABILITY OF AN ACTIVE PHARMACEUTICAL INGREDIENT” (Asana BioSciences, LLC, priority 2018, published 2022)
Counter-ions that a name gives are not always drawn.

Columns and labels:
[1] = Stability tests of COMPOUND A formulations at 40° C./75% RH (discoloration, viscosity, physical state); assay type: physicochemical; settings: poloxamer gel formulations, even at higher concentrations of the salt; expected
Excerpt: Table 5 below provides % w/w for COMPOUND A bromide salt polyethylene glycol ointment.

[2] = Single ascending dose first-in-human study: safety and tolerability; assay type: in vivo; settings: healthy subjects
Description: The objective of this study was to evaluate the safety, tolerability, pharmacokinetics and effect on tactile stimulation of topical formulations of COMPOUND A in healthy subjects.
(§1) Four single ascending dose cohorts (six active and two placebo subjects per cohort) were evaluated after topical application of a COMPOUND A topical poloxamer gel at an application rate of 82, 164, 328 and 492 μg active moiety/cm^2 on the volar forearm over a 10 cm^2 area. Two concentrations of a COMPOUND A topical poloxamer gel: 1% (0.82% active moiety) and 3% (2.46% active moiety) were evaluated in this study. The 1% and 3% gels used were made as described in Example 1 above. Safety was evaluated via hematology, biochemistry and urinalysis clinical laboratory analyses, electrocardiograms and adverse event collection for 14 days following dose administration. The clinical laboratory analyses included hematocrit; Hgb; MCH; MCHC; MCV; MPV; PLT; RBC; WBC and differentials (neutrophils, lymphocytes, monocytes, eosinophils, and basophils relative and absolute); biochemistry albumin; alkaline phosphatase; ALT; AST; chloride; creatinine (enzymatic); GGT; glucose random; LDH; potassium; sodium; total bilirubin; urea (BUN); uric acid; urinalysis color, clarity, pH, specific gravity, bilirubin, glucose, ketones, leukocytes, nitrite, blood, protein, urobilinogen and microscopic analysis. Local skin tolerability was assessed using a 4-point ordinal scale, and serial plasma samples for PK analysis were collected for up to 7 days post-application. The 4-point ordinal scale used was as follows: 0 (None); 1 (Mild); 2 (Moderate); 3 (Severe) for each of the following: erythema, stinging, itching, burning, desquamation, edema, and pain. Semmes-Weinstein microfilaments were used to assess response to tactile stimulation on the treated area of the forearm; these microfilaments were the same as those commonly used to test patients for diabetic neuropathy.

[3] = Observations in mice after single topical application (motor function, reflexes, weakness, grip strength, application site); assay type: in vivo
Description: 3% COMPOUND A in each of the three vehicle formulations prepared as described in Example 1 above—poloxamer (from Table 4 above); hydroxyethylcellulose (HEC) and polyethylene glycol (Ointment) (50 μl) was applied topically to the skin 6 hours prior to the intradermal injection of chloroquine (CQ) (4 mg/ml, 50 μl). […] Following intradermal CQ injection in the ipsilateral neck area, the number of scratches was counted and cumulative counts were recorded by an automated machine for 40 minutes.
Recovery: The condition of the site of injection was examined and observations of redness, swelling or abrasions due to scratching were made prior to and following scratch counting. Animals were euthanized upon completion of the final observations.
Different test articles comprising varying concentrations of COMPOUND A in hydroxyethyl cellulose (HEC) formulations of the specification (“Gel”) and in dimethylsulfoxide (DMSO) vehicle were tested on mice according to the pruritis model described in Example 2. The same strain of mice was used and the animals were housed in the same manner. Each treatment group consisted of 8 mice, and test articles Gel+COMPOUND A 0.3%, 1%, 3% and 5%, and DMSO+COMPOUND A 3% and 5%, were applied topically to the skin six hours prior to the intradermal injection of chloroquine (CQ) (4 mg/ml, 50 μl). […] Following intradermal CQ injection in the ipsilateral neck area, the number of scratches were counted and cumulative counts were recorded by the automated machine for 40 minutes. Following observation, animals were euthanized. In selected groups (Gel+3% COMPOUND A and Gel+5% COMPOUND A) plasma was harvested at 7 hours following the scratch counting. […] Harvested plasma samples were stored at −20° C. prior to analysis.
The carrier gel alone, with no drug, is referred to as “Gel.” Gel and Gel+COMPOUND A 1%,” “Gel+COMPOUND A 2%” and “Gel+COMPOUND A 3% were applied topically to the skin of groups of 8 mice, each of which were subjected to chloroquine injection (CQ; 4 mg/ml, 50μl) according to the pruritis model described in Example 2 at different time points (3 hours, 6 hours and 15 hours) post application of the test or control articles. The same strain of mice as in Example 2 was used, and the animals were housed in the same manner.

[4] = Single ascending dose first-in-human study: tactile stimulation with Semmes-Weinstein microfilaments; assay type: in vivo; settings: healthy subjects, treated area of the forearm, normal skin
Description: as §1, with “The 4-point ordinal scale used was as follows: 0 (None); 1 (Mild); 2 (Moderate); 3 (Severe) for each of the following: erythema, stinging, itching, burning, desquamation, edema, and pain. Semmes-Weinstein microfilaments were used to assess response to tactile stimulation on the treated area of the forearm; these microfilaments were the same as those commonly used to test patients for diabetic neuropathy.” left out

[5] = Tachyphylaxis study: body weight, application site and distress observations; assay type: in vivo
Description: For all three phases, the mice were subjected to the pruritis model as described in Example 2. Upon completion of the scratching assessment mice were placed in their home cage and examined at 24 hours for any adverse skin reactions. Phase 3 animals were euthanized for blood collection following completion of the scratching counts. The condition of the site of injection was examined and observations of redness, swelling or abrasions due to scratching were made following scratch counting and at 24 hours post drug application Animals were euthanized upon completion of the final observations. One mouse died during anesthesia on day 5 after application of 3% drug and one mouse was euthanized because of weight loss. Blood plasma was collected on day 5 following the behavior in the Phase 3 animals. Plasma samples were stored on dry ice until analysis. Data was collected, tabulated and analyzed as described in Example 1, and the results of each phase are discussed below.
This study was performed in three phases, to examine the effect of the successive dosing of poloxamer gel formulations according to the present specification, COMPOUND A (1%) COMPOUND A (3%) and COMPOUND A (3% with gel removal 3 hours after application) on scratching behavior after 5 days of treatment. During Phase 1 of this study, four groups of mice (each n=4) received topical poloxamer gel, COMPOUND A (1%) and COMPOUND A (3%) drug. One group received topical application of COMPOUND A (3%), which was removed after 3 hours. To remove the formulation, a piece of gauze that had been saturated with distilled water was used to gently wipe (not rub) the application site from the rostral end to the caudal end 3 times. The skin was then patted dry with clean gauze. If there were lesions present on the skin, then extra care is taken to avoid irritation or redness.
This treatment was continued for 5 days without any CQ injections. On day 5 all these mice received intradermal CQ 3 hours after the last application of the drug (n=4).

[6] = Single ascending dose first-in-human study: plasma pharmacokinetics; assay type: in vivo; settings: healthy subjects, topical poloxamer gel, most samples; quantifiable limit
Description: as §1, with “The 4-point ordinal scale used was as follows: 0 (None); 1 (Mild); 2 (Moderate); 3 (Severe) for each of the following: erythema, stinging, itching, burning, desquamation, edema, and pain. Semmes-Weinstein microfilaments were used to assess response to tactile stimulation on the treated area of the forearm; these microfilaments were the same as those commonly used to test patients for diabetic neuropathy.” left out

sodium channel = settings: through capsaicin-activated TRPV1 channels; cited from earlier work
[7] = following single topical application of the drug

Cc1ccccc1N(CC[C@H]1CCCC[N+]1(C)C)C1Cc2ccccc2C1 [COMPOUND A methanesulfonate salt, (R)-2-(2-((2,3-dihydro-1H-inden-2-yl)(o-tolyl)amino)ethyl)-1,1-dimethylpiperidin-1-ium]
Discoloration [1]: little to no discoloration

Cc1ccccc1N(CC[C@H]1CCCC[N+]1(C)C)C1Cc2ccccc2C1 [COMPOUND A, (R)-2-(2-((2,3-dihydro-1H-inden-2-yl)(o-tolyl)amino)ethyl)-1,1-dimethylpiperidin-1-ium]
Local tolerability of the gels (4-point ordinal scale) ([2]; topical poloxamer gel 1% and 3%): Excellent local tolerability
Tolerability of all doses ([2]; topical poloxamer gel 1% and 3%, single dose 82, 164, 328 and 492 μg active moiety/cm^2, volar forearm 10 cm^2): well-tolerated
Dose-limiting toxicities or treatment-related adverse events ([2]; up to the highest administered dose (492 μg active moiety/cm^2)): No dose-limiting toxicities or treatment-related adverse events were reported
Scratching at the site of application prior to injection of CQ ([3]; 3% in HEC gel, poloxamer gel or ointment): did not display scratching
Weakness ([3]; following single topical application): No weakness was observed
Motor function (measured by placing and stepping) [3, 7]: normal
Pinna and corneal reflexes [3, 7]: normal
Tactile stimulation assessments [4]: No trends were noted
Recovery ([5]; Phase 1, observed until day 9): they all recovered their weight and from their redness
Body weight ([5]; Phase 1, poloxamer gel 1% and 3%, 5 days): slight drop in the weight
Lethargy or distress ([5]; Phase 1, poloxamer gel, 5 days): No signs of lethargy or distress were observed
Skin at the site of application ([5]; Phase 1, poloxamer gel, 5 days (scaly by day 3; redness Day 4 and 5, no gel removal)): scaly texture at the site of application
Body weight ([5]; Phase 2, poloxamer gel 0.1% and 0.3%, 5 days): No weight loss was observed
Plasma concentration [6]: < 10 pg/mL

CC[N+](CC)(CC)CC(=O)Nc1c(C)cccc1C [QX-314]
Sodium channel activity (sodium channel): permeates through capsaicin-activated TRPV1 channels and blocks sodium channel activity
